# Target: T1, FXR (Homo sapiens, UniProt Q96RI1)
# T1 construct: expressed in transfected cells; host or cells: HEK293T
# T1 sequence (Q96RI1 262-486 limits assumed): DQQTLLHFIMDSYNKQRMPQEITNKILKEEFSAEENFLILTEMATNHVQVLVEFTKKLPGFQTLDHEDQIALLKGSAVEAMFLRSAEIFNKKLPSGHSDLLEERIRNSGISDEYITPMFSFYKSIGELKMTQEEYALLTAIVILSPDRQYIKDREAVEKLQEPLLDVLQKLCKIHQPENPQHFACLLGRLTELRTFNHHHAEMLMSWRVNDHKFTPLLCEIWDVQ
# Assay: Gal4-hybrid reporter gene assay FXR
# Format: cell-based
# Settings: at 50 µM, mean, n ≥ 3
# Experimental: The dual ligand candidates were characterized in functional assays for the targets of interest using cellular Gal4-hybrid reporter gene assays[43] to determine FXR, THRβ and PPARδ modulation and an enzyme activity assay[44] with the fluorogenic substrate PHOME to test sEH inhibition (Table 1).
# After 24 h, the medium was changed to Opti-MEM without supplements. Transient transfection was performed using Lipofectamine LTX reagent (Invitrogen, Carlsbad, CA, USA) according to the manufacturer’s protocol with pFR-Luc (100 ng/well) as reporter plasmid, pRL-SV40 (2 ng/well) for normalization of transfection efficiency and cell growth, and one pFA-CMV-hNR-LBD clone coding for the hinge region and ligand binding domain (LBD) of the NR of interest. Five hours after transfection, the cells were incubated with Opti-MEM supplemented with penicillin (100 U/mL) and streptomycin (100 µg/mL), additionally containing 0.1% DMSO and the respective test compound or 0.1% DMSO alone as untreated control. After overnight (14–16 h) incubation, luminescence was measured using the Dual-Glo® Luciferase Assay System (Promega, Madison, WI, USA) according to the manufacturer’s protocol with a Tecan Spark® 10 M multimode microplate reader. Relative light units (RLU) for normalization of transfection efficiency and cell growth were calculated by dividing firefly luminescence by renilla luminescence and multiplication by 1000. Fold activation was obtained by dividing the mean RLU of a test compound at a respective concentration by the mean RLU of the untreated control. All samples were tested in duplicates in at least three biologically independent experiments. For dose response curve fitting and calculation of the EC50/IC50 values, the equation “[Agonist]/[Inhibitor] vs. response – Variable slope (four parameters)” was used in GraphPad Prism 7.
row,SMILES,FXR: fold act. at 50 µM
1,O=C(O)c1ccc(-c2ccc(C(=O)NCc3c(Cl)cccc3Cl)cc2)cc1 [Compound 3],3.4 fold

# Same assay, conditions: mean, n ≥ 3
row,SMILES,EC50
1,CC(C)(C)c1ccc(CNC(=O)c2ccc(C(=O)O)cc2)cc1 [Compound 1],370 nM
2,O=C(O)c1ccc(CNC(=O)c2ccc(-c3ccccc3)cc2)cc1 [Compound 2],440 nM
3,CC(C)c1onc(-c2c(Cl)cccc2Cl)c1COc1ccc(CC(=O)O)cc1 [Compound 5],11000 nM
4,CC(C)c1onc(-c2c(Cl)cccc2Cl)c1COc1ccc(Cc2ccc(OCC(=O)O)cc2)cc1 [Compound 6],1000 nM

# Target: T2, THRβ (Homo sapiens, UniProt P10828)
# T2 construct: expressed in transfected cells; host or cells: HEK293T
# T2 sequence (P10828 217-461 limits assumed): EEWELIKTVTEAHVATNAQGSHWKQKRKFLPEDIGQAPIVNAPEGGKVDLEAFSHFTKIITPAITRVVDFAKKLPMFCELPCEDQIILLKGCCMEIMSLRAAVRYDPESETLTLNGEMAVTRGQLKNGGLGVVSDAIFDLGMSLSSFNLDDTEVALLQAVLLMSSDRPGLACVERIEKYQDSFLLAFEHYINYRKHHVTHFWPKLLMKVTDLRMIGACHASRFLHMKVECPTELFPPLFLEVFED
# Assay: Gal4-hybrid reporter gene assay THRβ
# Format: cell-based
# Settings: Gal4-hybrid reporter gene assay; at 15 µM; mean, n ≥ 3
# Excerpt: (§1) Compound 7 was originally designed with tert-butyloxy motif which was replaced by tert-butyl for improved chemical stability. The dual ligand candidates were characterized in functional assays for the targets of interest using cellular Gal4-hybrid reporter gene assays[43] to determine FXR, THRβ and PPARδ modulation and an enzyme activity assay[44] with the fluorogenic substrate PHOME to test sEH inhibition (Table 1). In vitro characterization of the CLM designed dual FXR/sEH modulators 1–3 confirmed engagement of both targets by all three compounds with sub-micromolar to low micromolar potencies. […] All designed PPARδ/sEH modulators (7–9) were confirmed as dual ligands of the intended targets. 7 emerged as remarkably potent sEH inhibitor endowed with micromolar PPARδ agonist activity.
# HEK293T cells (ATCC, CRL-1573) were cultured in Dulbecco’s modified eagle medium (DMEM), high glucose, supplemented with 10% FCS, sodium pyruvate (1 mM), penicillin (100 U/mL), and streptomycin (100 µg/mL) to 70–80% confluence at 37 °C and 5% CO2 and seeded in clear 96-well plates with a density of 40,000 cells/well. After 24 h, the medium was changed to Opti-MEM without supplements. Transient transfection was performed using Lipofectamine LTX reagent (Invitrogen, Carlsbad, CA, USA) according to the manufacturer’s protocol with pFR-Luc (100 ng/well) as reporter plasmid, pRL-SV40 (2 ng/well) for normalization of transfection efficiency and cell growth, and one pFA-CMV-hNR-LBD clone coding for the hinge region and ligand binding domain (LBD) of the NR of interest. Five hours after transfection, the cells were incubated with Opti-MEM supplemented with penicillin (100 U/mL) and streptomycin (100 µg/mL), additionally containing 0.1% DMSO and the respective test compound or 0.1% DMSO alone as untreated control. After overnight (14–16 h) incubation, luminescence was measured using the Dual-Glo® Luciferase Assay System (Promega, Madison, WI, USA) according to the manufacturer’s protocol with a Tecan Spark® 10 M multimode microplate reader. Relative light units (RLU) for normalization of transfection efficiency and cell growth were calculated by dividing firefly luminescence by renilla luminescence and multiplication by 1000. Fold activation was obtained by dividing the mean RLU of a test compound at a respective concentration by the mean RLU of the untreated control. All samples were tested in duplicates in at least three biologically independent experiments. For dose response curve fitting and calculation of the EC50/IC50 values, the equation “[Agonist]/[Inhibitor] vs. response – Variable slope (four parameters)” was used in GraphPad Prism 7. The following pFA-CMV-hNR-LBD clones and reference ligands were used: THRβ (pFA-CMV-hTHRβ-LBD[71], 1 µM T3), PPARδ (pFA-CMV-hPPARδ-LBD[72], 1 µM L-165,041), FXR (pFA-CMV-hFXR-LBD[73], 1 µM GW4064).
row,SMILES,THRβ: fold act. at 15 µM
1,CC(C)c1onc(-c2c(Cl)cccc2Cl)c1COc1ccc(Cc2ccc(OCC(=O)O)cc2)cc1 [Compound 6],5 fold

# Same assay, conditions: Gal4-hybrid reporter gene assay; mean, n ≥ 3
row,SMILES,THRβ: activity
1,CC(C)c1onc(-c2c(Cl)cccc2Cl)c1COc1ccc(C(=O)O)cc1 [Compound 4],inactive
2,CC(C)c1onc(-c2c(Cl)cccc2Cl)c1COc1ccc(CC(=O)O)cc1 [Compound 5],inactive

# Same assay, conditions: at non-toxic concentrations
row,SMILES,THRβ agonism
1,CC(C)c1onc(-c2c(Cl)cccc2Cl)c1COc1ccc(C(=O)O)cc1 [Compound 4],no detectable
2,CC(C)c1onc(-c2c(Cl)cccc2Cl)c1COc1ccc(CC(=O)O)cc1 [Compound 5],no detectable
3,CC(C)c1onc(-c2c(Cl)cccc2Cl)c1COc1ccc(Cc2ccc(OCC(=O)O)cc2)cc1 [Compound 6],weak

# Target: T3, sEH (Homo sapiens, UniProt P34913)
# T3 construct: His tag (inferred from HisTrap purification with imidazole elution); made in house; own inference
# T3 sequence (P34913 1-555): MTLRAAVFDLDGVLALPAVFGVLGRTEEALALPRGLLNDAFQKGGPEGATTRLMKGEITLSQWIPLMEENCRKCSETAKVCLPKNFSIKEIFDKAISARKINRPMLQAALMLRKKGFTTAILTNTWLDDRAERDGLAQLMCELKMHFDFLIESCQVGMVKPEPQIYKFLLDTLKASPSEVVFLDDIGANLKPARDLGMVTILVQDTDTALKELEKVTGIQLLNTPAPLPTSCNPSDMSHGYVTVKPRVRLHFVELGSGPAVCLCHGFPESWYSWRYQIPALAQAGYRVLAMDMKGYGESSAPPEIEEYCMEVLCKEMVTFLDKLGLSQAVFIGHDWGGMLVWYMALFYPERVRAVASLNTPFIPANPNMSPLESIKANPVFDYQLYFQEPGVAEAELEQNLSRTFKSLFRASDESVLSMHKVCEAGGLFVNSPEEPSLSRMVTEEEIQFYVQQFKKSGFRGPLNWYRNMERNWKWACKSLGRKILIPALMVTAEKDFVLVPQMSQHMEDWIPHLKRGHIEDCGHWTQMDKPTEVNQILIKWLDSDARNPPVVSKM
# Assay: sEH enzyme activity assay with fluorogenic substrate PHOME
# Format: biochemical
# Settings: mean, n ≥ 3
# Excerpt: as §1
# Soluble epoxide hydrolase (sEH) was purified as described by Hahn et al.[68] and Lukin et al.[69], respectively. Protein expression was carried out in 500 ml ZYP5052 autoinduction medium containing Kanamycin (100 mg/L) with lactose uptake-dependent induction. The fermentation procedure started at 37 °C and 200 rpm until the OD600 reached approximately 1.0. Then the temperature was reduced to 16 °C. After 24–36 h the cells (OD600 ≈ 15.0) were harvested by centrifugation at 5000 × g (4 °C, 20 min). Pellets were resuspended in a resuspension buffer containing Tris (50 mM), NaCl (0.5 M) and MgCl2 (10 mM) at pH 8 and sonicated twice for 15 s on ice. The sonicated suspension was centrifuged (18,000 × g, 30 min, 4 °C) and the supernatant was ultracentrifuged (100,000 × g, 1 h 10 min, 4 °C). The ultracentrifugation supernatant was loaded on a 5 ml HisTrap® FF (GE Healthcare, München, Germany) column at a flow rate of 2 ml/min and washed with washing buffer containing Tris (50 mM), NaCl (0.5 M), MgCl2 (10 mM), imidazole (20 mM) and DTT (3 mM) at pH 8, and eluted at 120 mM imidazole. The fractions containing hsEH after SDS-PAGE fraction analysis were pooled. The identity of hsEH was confirmed by Western Blotting and hsEH hydrolase activity assay. The inhibitory potency of the compounds was determined using a fluorescence-based enzyme activity assay in which PHOME (3-phenyl-cyano(6-methoxy-2-naphthalenyl)methylester-2-oxiraneacetic acid) is metabolized by sEH hydrolase towards a fluorescent naphthalene aldehyde. Dilution series of the compounds were incubated for 30 min with recombinant sEH (final protein concentration 3 nM). Subsequently, the fluorogenic substrate PHOME at final concentration of 50 μM was added, and the fluorescence was measured every minute for 45 min using a Tecan plate reader (ex: 360 nm, em: 465 nm; bandwidth 35 nm). Inhibition in percent was plotted against the logarithmic test compound concentration and IC50-values were calculated using the “log(Inhibitor) vs. Response – Variable slope (four parameters)” equation in GraphPad Prism 7.
row,SMILES,IC50
1,CC(C)(C)c1ccc(CNC(=O)c2ccc(C(=O)O)cc2)cc1 [Compound 1],4.1 µM
2,O=C(O)c1ccc(CNC(=O)c2ccc(-c3ccccc3)cc2)cc1 [Compound 2],8.1 µM
3,O=C(O)c1ccc(-c2ccc(C(=O)NCc3c(Cl)cccc3Cl)cc2)cc1 [Compound 3],21 µM

# Tested on: FXR
# Assay: not given
# Parameters: method as in earlier work
# Settings: fine-tuning set; BindingDB; read-out: potency on target (EC50 for FXR); cited from earlier work
row,SMILES,EC50
1,CC(C)c1cnn(-c2c(Cl)cccc2Cl)c1COc1ccc(C=Cc2cccc(C(=O)O)c2)c(Cl)c1,20 nM
2,CC(C)c1onc(-c2c(Cl)cccc2Cl)c1COc1ccc2sc(-c3cccc(C(=O)O)c3)cc2c1,32 nM
3,CC(C)n1nc(C(=O)O)cc1C1CC1c1ccc(OCc2c(-c3c(Cl)cccc3Cl)noc2C2CC2)cc1Cl (stereo not shown),4 nM
4,CN(Cc1cccc(C(=O)O)c1)c1ccc(OCc2c(-c3c(Cl)cccc3Cl)noc2C2CC2)nc1C(F)(F)F,9 nM
5,COc1ccc(CNc2c(-c3cc(Cl)ccn3)nc3ccc(Cl)cn23)cc1,0.3 nM
6,Cc1cccc(C)c1OCc1noc(C(C)C)c1COc1ccc(C=Cc2cccc(C(=O)O)c2)c(Cl)c1,56 nM
7,O=C(O)c1ccc2nc(N3CCCC(OCc4c(-c5ccccc5OC(F)(F)F)noc4C4CC4)CC3)sc2c1 (stereo not shown),7 nM

# Tested on: sEH
# Assay: not given
# Parameters: method as in earlier work
# Settings: fine-tuning set; BindingDB; read-out: potency on target (IC50 for sEH); cited from earlier work
row,SMILES,IC50
1,CC(C)(C)N1CCOC(COc2ccc(NC(=O)NC3CCCCC3)cc2)C1 (stereo not shown),77 nM
2,CC(C)c1noc(C2CCN(C(=O)NC3CC3c3ccccc3)CC2)n1 (stereo not shown),6 nM
3,O=C(NCc1ccc(Br)cc1OC(F)(F)F)c1ccc(OCCC(F)(F)F)nc1,12 nM
5,O=C(O)CCc1ccc(OC2CCN(C(=O)NC3C(c4ccccc4)C3c3ccccc3)CC2)cc1 (stereo not shown),2 nM

# Target: T4, FFAR1 (Homo sapiens, UniProt O14842)
# T4 construct: expressed in transfected cells
# Assay: not given
# Parameters: method as in earlier work
# Settings: fine-tuning set; BindingDB; read-out: potency on target (EC50 for FFAR1); cited from earlier work
# T4 sequence (O14842 whole entry): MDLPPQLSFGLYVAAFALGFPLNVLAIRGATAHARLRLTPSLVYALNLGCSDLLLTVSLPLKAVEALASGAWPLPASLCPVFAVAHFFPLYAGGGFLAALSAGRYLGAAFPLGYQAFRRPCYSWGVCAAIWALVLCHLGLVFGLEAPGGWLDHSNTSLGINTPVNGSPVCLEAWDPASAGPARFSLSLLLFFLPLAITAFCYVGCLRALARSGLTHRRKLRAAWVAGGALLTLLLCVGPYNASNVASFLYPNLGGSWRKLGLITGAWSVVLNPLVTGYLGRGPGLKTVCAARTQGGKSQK
row,SMILES,EC50
1,CCOC(CC(=O)O)c1ccc(OC2CCc3c(Cl)cccc32)cc1 (stereo not shown),5 nM
2,CC#CC(CC(=O)O)c1ccc(NC(=O)C(=O)Nc2cccc(C(C)(C)C)c2)cc1 (stereo not shown),4 nM
3,CC#CC(CC(=O)O)c1ccc(OCc2cccc(CN(Cc3ccsc3)C3CCOCC3)c2)cc1 (stereo not shown),8 nM
4,CC(C(=O)O)C(c1ccc2c(c1)OC(C1CCN(C(C)c3cc(F)ccc3OC(F)(F)F)CC1)CC2)C1CC1 (stereo not shown),2 nM
5,COc1ccc(F)c(C2CCC(COc3cccc(C(C4CC4)C(C)C(=O)O)c3)CC2)c1 (stereo not shown),2 nM
